Here are results for twelve molecules from PubChem BioAssay (NCI).

Test in all cases: inhibition of tumour cell growth, NCI panel, 48 h
Test [1] deals with SF-295 CNS.
The subject of test [2] is SR leukemia.
For test [3], the system named is SW-620 colon.
Test [4] has as its system RXF 393 renal.
Test [5] deals with UACC-62 melanoma.
Test [6] has as its system SNB-19 CNS.
Test [7] has as its system MDA-N.
For test [8], the system named is SK-MEL-28 melanoma.
Test [9] concerns MDA-MB-435.
For test [10], the system named is SNB-75 CNS.
The subject of test [11] is NCI-H23 lung.
In test [12] the test system is SF-539 CNS.
The test system of test [13] is HCC-2998 colon.
Test [14] relates to TK-10 renal.

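Tested at 5 concentrations; 48 h exposure; 96-well plates; endpoints linearly interpolated, else capped at highest concentration. TGI is the concentration that stops growth completely.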

As to `C[N+]12C=CC=C1C(N1CCCC1)c1scc(-c3ccccc3)c12` (stereo not drawn), the TGI in test [1] was more than 100 µM; in [2], 37.4 µM; in test [3], more than 100 µM; in test [4], 90.1 µM; in [5], more than 100 µM; in [6], more than 100 µM. The TGI is 84.3 µM in [7], more than 100 µM in test [8], more than 100 µM in test [9] and 47.8 µM in test [10].

On to `COc1cc2c(c(O)c1OC)C(=O)[C@@H]1CCC(=O)N1C2`, for which the TGI in test [1], in [2], in test [3], in [5], in test [6] and in [11] was more than 100 µM in each case. Also, the TGI in test [7], in [12], in test [8], in test [13], in test [9] and in [14] was more than 100 µM each time. This molecule showed a TGI in [10] of more than 100 µM.

Consider `CC1(C)CC[C@]2(C)CC[C@]3(C)C(=CC[C@@H]4[C@@]5(C)CCC(=O)C(C)(C)[C@@H]5[C@H](O)C[C@]43C)[C@@H]2C1`, for which the TGI turned out to be 32.3 µM in test [1]; 42.2 µM in [3]; 31.1 µM in [4]; 29.4 µM in test [5]; 30.6 µM in test [6]; 35.3 µM in test [11]. In addition, the TGI worked out at 29.7 µM in test [7]; 32.1 µM in test [12]; 34.8 µM in test [8]; 28.9 µM in test [13]; 39.7 µM in test [9]; 30.1 µM in test [14].

With `COC(=O)c1ccc2c(c1)S/C(=C/c1ccc3ccc4cccc5ccc1c3c45)S2`, the TGI in test [1] is more than 100 µM; in test [3], 76.8 µM; in [4], more than 100 µM; in test [5] it was 61 µM; in test [6], more than 100 µM; in [11], 52.7 µM. Moreover, the TGI in test [7] is more than 100 µM; in test [12] it was more than 100 µM; in [13], more than 100 µM; in test [9] it was 74.3 µM; in test [14], more than 100 µM; in test [10], 46 µM.

As to `CC1CN=C(N(Cc2ccccc2)C(=O)Nc2ccc(Cl)c(Cl)c2)S1` (stereo not drawn), the TGI in test [1] was more than 10 µM; in [2], more than 100 µM; in test [3] it was more than 100 µM; in [6], more than 100 µM; in test [11], more than 100 µM; in test [7], more than 100 µM. Also, the TGI in test [12] was more than 100 µM; in [8], 68.8 µM; in [13] it was more than 10 µM; in [14] it was more than 100 µM; in test [10] it was more than 100 µM.

`NNC(=O)c1c(-c2cccnc2)cnc2ccccc12`: the TGI in test [1], in test [2], in [3], in test [4], in test [5] and in [6] was more than 100 µM in each case. Further, the TGI in test [11], in test [7], in [12], in test [8], in test [13] and in test [14] was more than 100 µM throughout. In test [10], this molecule registered a TGI of more than 100 µM.

Take `O=C1Cc2c([nH]c3ccc(Br)cc23)-c2cc(O)c(O)cc2N1`: the TGI in test [1], in [3], in [4], in test [5], in test [6] and in test [11] was more than 100 µM throughout. The TGI in test [7], in [8], in test [13], in test [9], in [14] and in test [10] was more than 100 µM each time.

Consider `O=[N+]([O-])c1ccc(-c2nc3ccc(Cl)cc3[nH]2)cc1`, for which the TGI in test [1], in [2], in [3], in test [5], in test [6] and in test [11] was more than 100 µM each time. For the same molecule, the TGI in [7], in test [12], in test [8], in test [9], in [14] and in [10] was more than 100 µM in each case.

In the case of `CCc1c(C)c(C#N)c(=S)n(C2OC(COC(C)=O)C(OC(C)=O)C(OC(C)=O)C2OC(C)=O)c1-c1ccccc1` (stereo not drawn), the TGI in test [1] is 27 µM; in [2], more than 31.6 µM; in [3], more than 100 µM; in [11] it was more than 31.6 µM; in [7], more than 31.6 µM; in test [12] it was more than 31.6 µM. Also, the TGI in test [8], in test [13], in [9] and in test [14] was more than 31.6 µM throughout.

`COc1ccc2c(c1)c1c(n2CCN(C)C)-c2ccccc2CC1`: the TGI stood at 30.6 µM in test [1]; 34.2 µM in [3]; 28 µM in test [5]; 35.5 µM in [6]; 31.9 µM in [11]; 30.5 µM in test [7]. The TGI in [12] was 27 µM; in test [8], 29.1 µM; in test [13], 32.2 µM; in test [9] it was 36.5 µM; in test [14], 29.8 µM; in test [10], 26.6 µM.

On to `COc1cc(O)c2c(=O)c(O)c(-c3ccc(O)c(OC)c3)oc2c1`, for which the TGI in [1], in [3], in test [6], in test [11], in test [7] and in [12] was more than 100 µM in each case. For the same molecule, the TGI is more than 100 µM in test [13], more than 100 µM in test [14] and more than 20.5 µM in test [10].

For the molecule `COc1ccc(OC)c(N(CN2C(=O)CCC2C(=O)O)C(C)=O)c1` (stereo not drawn), the TGI in test [1], in test [2], in [3], in test [5], in test [6] and in test [11] was more than 100 µM throughout. For the same molecule, the TGI in [7], in test [12], in [8], in [9], in test [14] and in test [10] was more than 100 µM in each case.
